Test results published in ChEMBL document CHEMBL1130602 (Bioorg Med Chem Lett, 1998).

Tests used:
CHO = test: (§1) Compound was tested for stimulation of mitogenesis in CHO.hD3 cells in a dose dependent manner; type: functional, cell-based; details: Cricetulus griseus
D(1A) dopamine receptor = D(1A) dopamine receptor (Homo sapiens, UniProt P21728); test: Compound was evaluated for binding affinity against Dopamine receptor D1 transfected in CHO cell membranes
D(1B) dopamine receptor = D(1B) dopamine receptor (Homo sapiens, UniProt P21918); test: Compound was evaluated for binding affinity against human Dopamine receptor D5 transfected in CHO cell membranes
Chain of D(1B) dopamine receptor (P21918 whole entry): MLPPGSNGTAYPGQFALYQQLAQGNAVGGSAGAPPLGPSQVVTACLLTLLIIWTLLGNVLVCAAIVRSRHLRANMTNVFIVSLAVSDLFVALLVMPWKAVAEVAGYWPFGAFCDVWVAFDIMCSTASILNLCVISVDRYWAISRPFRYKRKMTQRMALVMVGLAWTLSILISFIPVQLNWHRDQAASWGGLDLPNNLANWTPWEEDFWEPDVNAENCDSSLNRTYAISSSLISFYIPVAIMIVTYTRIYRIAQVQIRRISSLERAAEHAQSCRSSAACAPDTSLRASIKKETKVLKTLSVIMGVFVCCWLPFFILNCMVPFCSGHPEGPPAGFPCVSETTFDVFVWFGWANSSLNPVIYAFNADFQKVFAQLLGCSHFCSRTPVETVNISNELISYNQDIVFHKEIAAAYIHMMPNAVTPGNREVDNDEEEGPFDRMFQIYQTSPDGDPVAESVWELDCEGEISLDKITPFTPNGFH

D(4) dopamine receptor [1] = biological target: T1, D(4) dopamine receptor (Homo sapiens, UniProt P21917); test: Compound was evaluated for binding affinity against human Dopamine receptor D4 transfected in CHO cell membranes
T1 sequence (P21917 whole entry): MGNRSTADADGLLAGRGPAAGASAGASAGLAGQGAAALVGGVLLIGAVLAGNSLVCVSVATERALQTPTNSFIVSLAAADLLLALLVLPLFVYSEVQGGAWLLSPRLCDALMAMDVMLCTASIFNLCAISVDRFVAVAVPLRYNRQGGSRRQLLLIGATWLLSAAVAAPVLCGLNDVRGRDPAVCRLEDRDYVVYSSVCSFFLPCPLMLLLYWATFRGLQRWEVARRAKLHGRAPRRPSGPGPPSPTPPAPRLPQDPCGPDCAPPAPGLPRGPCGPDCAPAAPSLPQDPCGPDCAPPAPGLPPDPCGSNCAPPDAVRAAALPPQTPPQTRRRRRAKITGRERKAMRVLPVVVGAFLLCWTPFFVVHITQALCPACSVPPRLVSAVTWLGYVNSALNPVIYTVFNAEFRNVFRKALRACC

[2] = biological target: T2, Adrenergic receptor alpha-1 (Rattus norvegicus, UniProt P15823+P23944+P43140); test: Compound was evaluated for binding affinity against Alpha-1 adrenergic receptor from rat; type: protein assay
T2 sequence (P15823 whole entry): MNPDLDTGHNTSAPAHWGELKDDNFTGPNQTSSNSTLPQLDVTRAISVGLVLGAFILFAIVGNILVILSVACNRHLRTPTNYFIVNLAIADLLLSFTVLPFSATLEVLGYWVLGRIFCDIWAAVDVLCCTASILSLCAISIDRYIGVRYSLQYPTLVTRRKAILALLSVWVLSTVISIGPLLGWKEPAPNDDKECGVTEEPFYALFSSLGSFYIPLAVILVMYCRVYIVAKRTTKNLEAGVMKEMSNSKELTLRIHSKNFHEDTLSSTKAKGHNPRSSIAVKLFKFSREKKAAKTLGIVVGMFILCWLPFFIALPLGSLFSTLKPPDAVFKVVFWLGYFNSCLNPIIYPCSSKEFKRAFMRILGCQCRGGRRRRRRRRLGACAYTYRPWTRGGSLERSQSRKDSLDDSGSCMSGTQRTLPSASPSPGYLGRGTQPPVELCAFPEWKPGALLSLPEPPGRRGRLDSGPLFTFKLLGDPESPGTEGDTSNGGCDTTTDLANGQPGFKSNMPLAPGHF
T2 sequence (P23944 whole entry): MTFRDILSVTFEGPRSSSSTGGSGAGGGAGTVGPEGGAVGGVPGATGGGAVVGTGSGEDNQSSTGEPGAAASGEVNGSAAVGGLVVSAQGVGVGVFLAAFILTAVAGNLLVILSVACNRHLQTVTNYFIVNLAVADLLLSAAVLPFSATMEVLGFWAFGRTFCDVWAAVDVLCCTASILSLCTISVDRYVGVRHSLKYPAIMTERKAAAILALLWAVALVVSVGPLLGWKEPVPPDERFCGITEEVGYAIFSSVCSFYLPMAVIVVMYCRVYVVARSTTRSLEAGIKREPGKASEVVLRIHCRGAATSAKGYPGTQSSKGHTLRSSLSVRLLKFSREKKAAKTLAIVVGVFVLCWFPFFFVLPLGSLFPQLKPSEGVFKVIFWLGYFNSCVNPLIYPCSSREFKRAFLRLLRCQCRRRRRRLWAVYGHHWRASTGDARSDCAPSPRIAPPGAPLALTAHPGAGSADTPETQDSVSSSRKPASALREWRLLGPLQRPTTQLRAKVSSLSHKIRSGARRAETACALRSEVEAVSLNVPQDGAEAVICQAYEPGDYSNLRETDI
T2 sequence (P43140 whole entry): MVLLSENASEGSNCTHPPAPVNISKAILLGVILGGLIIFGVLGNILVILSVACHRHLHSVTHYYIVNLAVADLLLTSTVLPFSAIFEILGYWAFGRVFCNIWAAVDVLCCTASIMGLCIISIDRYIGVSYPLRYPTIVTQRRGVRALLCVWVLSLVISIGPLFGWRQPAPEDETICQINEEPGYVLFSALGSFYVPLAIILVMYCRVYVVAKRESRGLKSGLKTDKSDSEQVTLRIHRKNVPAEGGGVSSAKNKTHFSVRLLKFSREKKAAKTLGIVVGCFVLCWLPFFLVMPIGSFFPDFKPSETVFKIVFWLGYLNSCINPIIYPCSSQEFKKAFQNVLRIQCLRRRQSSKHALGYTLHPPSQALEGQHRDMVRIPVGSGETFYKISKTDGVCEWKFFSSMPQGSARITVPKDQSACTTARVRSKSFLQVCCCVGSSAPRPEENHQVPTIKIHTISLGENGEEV

[3] = biological target: Serotonin 2 (5-HT2) receptor (Rattus norvegicus, UniProt P30994+P08909+P14842); test: Compound was evaluated for binding affinity against 5-hydroxytryptamine 2 receptor from rat; type: protein assay
D(3) dopamine receptor = D(3) dopamine receptor (Homo sapiens, UniProt P35462); test: Compound was evaluated for binding affinity against human Dopamine receptor D3 transfected in CHO cell membranes to stimulate [3H]thymidine uptake
Chain of D(3) dopamine receptor (P35462 whole entry): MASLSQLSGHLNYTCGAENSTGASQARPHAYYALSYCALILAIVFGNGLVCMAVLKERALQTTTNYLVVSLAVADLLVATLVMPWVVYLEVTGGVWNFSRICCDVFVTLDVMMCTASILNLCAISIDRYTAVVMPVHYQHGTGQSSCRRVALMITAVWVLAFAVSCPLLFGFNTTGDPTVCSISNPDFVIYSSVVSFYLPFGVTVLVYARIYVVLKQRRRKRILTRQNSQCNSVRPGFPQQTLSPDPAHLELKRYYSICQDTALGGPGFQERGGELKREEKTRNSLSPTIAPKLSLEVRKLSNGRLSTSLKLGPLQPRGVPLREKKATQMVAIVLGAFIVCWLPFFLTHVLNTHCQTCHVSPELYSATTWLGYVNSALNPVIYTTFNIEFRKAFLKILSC

CHO-hD3 = test: as §1; type: functional, cell-based; details: Cricetulus griseus
D(4) dopamine receptor [4] = biological target: T1, D(4) dopamine receptor; test: Affinity against D4 receptor was evaluated
[5] = biological target: D(2) dopamine receptor (Homo sapiens) (UniProt P14416); test: Selectivity ratio of Ki of D2 receptor to that of D3 receptor
Chain of D(2) dopamine receptor (Homo sapiens) (P14416 whole entry): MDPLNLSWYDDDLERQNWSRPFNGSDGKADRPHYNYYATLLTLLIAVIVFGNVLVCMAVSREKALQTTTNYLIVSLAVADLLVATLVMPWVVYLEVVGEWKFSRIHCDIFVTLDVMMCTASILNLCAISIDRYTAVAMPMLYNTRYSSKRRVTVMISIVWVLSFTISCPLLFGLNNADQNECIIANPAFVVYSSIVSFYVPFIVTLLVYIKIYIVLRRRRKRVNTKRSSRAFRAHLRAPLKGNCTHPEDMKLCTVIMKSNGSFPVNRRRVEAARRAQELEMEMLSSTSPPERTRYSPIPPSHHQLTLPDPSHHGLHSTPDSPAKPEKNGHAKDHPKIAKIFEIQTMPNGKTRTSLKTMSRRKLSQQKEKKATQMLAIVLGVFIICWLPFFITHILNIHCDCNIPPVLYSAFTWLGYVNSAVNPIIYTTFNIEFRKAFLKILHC

Chain of D(1A) dopamine receptor (P21728 whole entry): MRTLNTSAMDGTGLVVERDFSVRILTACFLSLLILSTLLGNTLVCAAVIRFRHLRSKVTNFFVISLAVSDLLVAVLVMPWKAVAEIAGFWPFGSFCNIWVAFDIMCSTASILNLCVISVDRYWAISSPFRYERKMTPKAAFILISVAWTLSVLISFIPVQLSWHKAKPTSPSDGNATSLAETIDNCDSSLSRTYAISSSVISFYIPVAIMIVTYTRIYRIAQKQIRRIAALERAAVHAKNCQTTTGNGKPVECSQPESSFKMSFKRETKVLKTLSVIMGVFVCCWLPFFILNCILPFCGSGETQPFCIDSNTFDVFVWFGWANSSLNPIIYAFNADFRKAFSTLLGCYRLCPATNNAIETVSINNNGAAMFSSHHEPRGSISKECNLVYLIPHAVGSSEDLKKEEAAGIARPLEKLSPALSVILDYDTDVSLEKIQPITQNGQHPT

| Structure (SMILES) | Ki (D(1A) dopamine receptor) [nM] | Ki (D(1B) dopamine receptor) [nM] | Ki (D(4) dopamine receptor [1]) [nM] | Ki [2] [nM] | Ki [3] [nM] | IC50 (CHO-hD3) [nM] | further results |
| --- | --- | --- | --- | --- | --- | --- | --- |
| O=C(NCCCCN1CCN(c2cccc(Cl)c2Cl)CC1)c1ccc2c(c1)-c1ccccc1-2 | > 10000 | > 10000 | > 5000 | 547 | 125 |  | IC50 (CHO): 6.8 nM; Ki (D(3) dopamine receptor): 0.9 nM |
| O=C(CCCN1CCC(O)(c2ccc(Cl)cc2)CC1)c1ccc(F)cc1 [HALOPERIDOL] |  |  |  |  |  | 8.8 |  |
| O=C(NCCCCN1CCN(c2cccc(Cl)c2Cl)CC1)c1ccc2c(c1)Cc1ccccc1-2 | > 10000 | > 10000 | > 5000 | 642 | 223 | 5 |  |
| COc1c(C(=O)NCCN2CCN(c3cccc(Cl)c3Cl)CC2)cc(Br)c2ccccc12 |  |  |  |  |  |  | Ki (D(4) dopamine receptor [4]): 65 nM |
| CCCCN1CCCC1CNC(=O)c1cc(C#N)c2ccccc2c1OC (stereo unspecified) |  |  |  |  |  |  | Ratio [5]: 10 |
